Where two headings read alike, the source gives them in different places.
Key:
[1] = IVIVE: steady-state concentration (Css), generic HTTK model; parameters: species or system human; details: for Css (mg/L) / Css (uM): Assuming 1 mg/kg/day dose rate, BW 70 kg; for CLhep: QL 1500000 uL/min; for Fub: fub=fup/(B:P), Fub set to 1 if needed; for CLint: scaled to whole liver: HPGL 110 mill cells/g, Vl 1596 g; for Css: human steady-state concentration, 1 mg/kg/day exposure rate, loss of parent compound only
Outline: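 Human Css estimated by IVIVE: plasma protein binding converted to blood fraction unbound via blood-to-plasma partitioning, and experimental Clint scaled with liver scalars to whole liver clearance. AEDs then derived by reverse dosimetry from Css and PFAS in vitro POD, defined as fifth-percentile AC50.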

[2] = test system: pooled primary human hepatocyte suspensions; assay: in vitro; details: for In Vitro Clint: Table 3, 0 = no significant clearance
Outline: (§1)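 Substrate depletion at 1 μM PFAS in pooled cryopreserved human hepatocytes (~0.5 × 10^6 viable cells/mL, 50-donor pool), 37 °C with shaking, sampled 0–240 min in triplicate. Quantified by LC-MS in negative ion mode against matrix-matched calibration; media-only or heat-inactivated cells as nonmetabolic-loss controls.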

plasma protein = details: cited from earlier work; for fup (fraction unbound in plasma): human plasma
[3] = test system: pooled primary human hepatocyte suspensions; details: both, hepatocytes, 1 μM
Text: (§2) Markov Chain Monte Carlo was employed in a Bayesian analysis to estimate uncertainty of the hepatic clearance point measures as previously described, but with some modifications [10]. Briefly, after organizing PFAS-level data into a single file, the relationship between the relevant measurement process parameters was described in a graphic model in JAGS language [13] interfaced through R. For hepatic clearance data, the model describes the PFAS-specific mass spectrometric response factor between analyte peak ratio (to internal standard) and chemical concentration. […] The assumed prior for whether the chemical degraded abiotically in vitro followed a Bernoulli distribution with a 5% chance of abiotic degradation. Separate biotic and abiotic components for chemical elimination were estimated, each with a slope following an assumed uniform prior distribution bounded between the zero and the -log (limit of quantitation/Ctest). In scenarios where an external calibration without internal standard was used, the response factor was calculated using the analyte peak alone, introducing additional uncertainty due to the inability to normalize for recovery issues. The model was analyzed jointly by JAGS using five Markov chains. Convergence was identified by requiring the five chains to be consistent, as indicated by the potential scale reduction factor [14] being less than 1.1. The analysis was performed using EPA-developed R package invitroTKstats, available upon request.

[4] = Hepatic clearance assay (substrate depletion, LC-MS); details: both, human
Outline: as §1

[5] = test system: pooled primary human hepatocyte suspensions; assay: Bayesian (MCMC, invitroTKstats) analysis of hepatic clearance data; details: for metabolic clearance call, experimental and Bayesian analyses in agreement: both analyses agreed; for Clint.1.Med: Level-4 Bayesian estimate, posterior median, Clint.1 series (Clint.10 all NA)
Text: as §2

[6] = Administered equivalent dose (AED) by reverse dosimetry; parameters: species or system human; details: from Css and AC50 POD by reverse dosimetry
Procedure: IVIVE was performed as previously described to calculate human steady-state concentrations (Css). Briefly, experimental plasma protein binding data presented elsewhere were transformed to fraction unbound in blood using blood-to-plasma partitioning values. Experimental Clint values generated here are used in conjunction with relevant liver scalars to scale up to estimate whole liver clearance. […] Once Css values were established, these were used with the PFAS-specific in vitro POD data to calculate the administered equivalent doses (AEDs) using reverse dosimetry. […] The fifth-percentile AC50 value was used to define the in vitro POD. All relevant inputs, scalars, and calculations are provided in Supplementary Information, as indicated in the results.

[7] = parameters: method as in PMID 32648786; details: human; cited from earlier work
[8] = parameters: method as in PMID 26085347; details: simulation; cited from earlier work
[9] = parameters: method as in PMID 36851038; details: dynamic one-compartment model; cited from earlier work
[10] = CLint value carried into HTTK/IVIVE, in µL/min/10^6 cells
[11] = pooled primary human hepatocyte suspensions, in µL/min/10^6 cells
[12] = unadjusted hepatic intrinsic clearance, pooled primary human hepatocyte suspensions, Table S4, in µL/min/10^6 cells
[13] = pooled human hepatocyte suspension, 1 μM

| Compound | Unadj Clint [2, 12] | Css [1] | hepatocyte CLint at 1 μM ([4]; hepatocytes) | fup (fraction unbound in plasma) (plasma protein) | AED [6] | further results |
| --- | --- | --- | --- | --- | --- | --- |
| O=C(O)CCC(F)(C(F)(F)F)C(F)(F)F |  |  |  |  |  | Css (mg/L) [1]: 2.52 mg/L; Css (uM) [1]: 10.43 µM; CLhep [1]: 0.000 L/h; Fub [1]: 0.1738; CLint [1]: 0 µL/min; CLint for HTTK ([2]; both, human, hepatocytes, 1 μM): 0; Unadj Clint ([2]; both, human, hepatocytes, 1 μM): 0.00; in vitro CLint exp assay ([2]; both, human, hepatocytes, 1 μM): 0; Mean fu (plasma protein; plasma): 0.0956; Clint.1.Med [3]: 0 |
| O=C(O)C=CC(F)(C(F)(F)F)C(F)(F)F [3-(Perfluoroisopropyl)-2-propenoic acid] | 1.23 |  |  |  |  | Css (mg/L) [1]: 2.41 mg/L; Css (uM) [1]: 10.03 µM; CLhep [1]: 0.000 L/h; Fub [1]: 0.1824; CLint [1]: 0 µL/min; CLint for HTTK [2, 10]: 0; in vitro CLint exp assay [2, 11]: 0; Mean fu (plasma protein; fraction unbound in plasma, input for IVIVE calculations): 0.1003; Clint.1.Med [3]: 0 |
| O=S(=O)(O)CCC(F)(F)C(F)(F)C(F)(F)C(F)(F)F [4:2 FTS, 4:2 Fluorotelomer sulfonic acid] | 4.28 | 19.12 µM | 4.28 µL/min/1e6 cells | 0.0050 |  | In Vitro Clint [2, 13]: 4.28 μL/min/million cells |
| O=C(O)CCC(F)(F)C(F)(F)C(F)(F)C(F)(F)C(F)(F)F [5:3 FTCA, 2H,2H,3H,3H-Perfluorooctanoic acid] | 11.84 | 6.18 µM | 11.8 µL/min/1e6 cells | 0.0059 | 0.99 mg/kg/day | In Vitro Clint [2, 13]: 11.84 μL/min/million cells; metabolic clearance call, experimental and Bayesian analyses in agreement [5]: metabolized |
| O=S(=O)(O)CCC(F)(F)C(F)(F)C(F)(F)C(F)(F)C(F)(F)C(F)(F)F [6:2 FTS, 6:2 Fluorotelomer sulfonic acid] | 1.40 | 12.36 µM | 1.4 µL/min/1e6 cells | 0.0143 | 0.89 mg/kg/day | In Vitro Clint [2, 13]: 1.4 μL/min/million cells |
| O=C(O)CCC(F)(F)C(F)(F)C(F)(F)C(F)(F)C(F)(F)C(F)(F)F [6:3 FTCA, 6:3 Fluorotelomer carboxylic acid] |  | 30.01 µM |  | 0.0023 | 0.18 mg/kg/day | Css (mg/L) [1]: 11.76 mg/L; Css (uM) [1]: 30.01 µM; CLhep [1]: 0.222 L/h; Fub [1]: 0.004182; CLint [1]: 886578 µL/min; CLint for HTTK [2, 10]: 5.05; CLint ([2]; Table 2, pooled human hepatocyte suspension, 1 μM, 0-240 min, 0 = slope not significant (p>0.05)): 5.05 μL/min/million cells; In Vitro Clint [2, 13]: 5.05 μL/min/million cells; in vitro CLint exp assay [2, 11]: 5.05; Clint.1.Med [5]: 0 |
| O=C(O)CCC(F)(F)C(F)(F)C(F)(F)C(F)(F)C(F)(F)C(F)(F)C(F)(F)F [7:3 FTCA, 3-Perfluoroheptylpropanoic acid] | 19.74 | 4.99 µM | 15.7 µL/min/1e6 cells | 0.0051 | 0.19 mg/kg/day | Css (mg/L) [1]: 2.20 mg/L; Css (uM) [1]: 4.99 µM; CLhep [1]: 1.272 L/h; Fub [1]: 0.009273; CLint [1]: 2319148 µL/min; CLint for HTTK [2, 10]: 13.21; In Vitro Clint [2, 13]: 15.7 μL/min/million cells; in vitro CLint exp assay [2, 11]: 13.21; Clint.1.Med [5]: 15.6; metabolic clearance call, experimental and Bayesian analyses in agreement [5]: metabolized |
| O=S(=O)(O)CCC(F)(F)C(F)(F)C(F)(F)C(F)(F)C(F)(F)C(F)(F)C(F)(F)C(F)(F)F [8:2 FTS, 8:2 Fluorotelomer sulfonic acid] | 1.53 |  |  |  |  | hepatocyte CLint at 1 μM ([4]; cryopreserved pooled primary human hepatocyte suspensions): 1.53 µL/min/1e6 cells |
| O=C(O)C(F)(F)C(F)(F)C(F)(F)C(F)(F)C(F)(F)C(F)(F)C(F)F [8H-PFOA, 8H-Perfluorooctanoic acid] | 0.00 | 290.23 µM |  | 0.0021 | 0.04 mg/kg/day | Clint.1.Med [5]: 0 |
| O=C(O)C(F)(F)C(F)(F)C(F)(F)C(F)(F)C(F)(F)C(F)(F)C(F)(F)C(F)F [9H-PFNA, 9-H-Perfluorononanoic acid] | 0.00 | 601.28 µM |  | 0.0009 | 0.004 mg/kg/day |  |
| O=C(O)C(F)(F)C(F)(F)C(F)(F)C(F)(F)C(F)(F)C(F)(F)C(F)(F)C(F)(F)C(F)(F)C(F)F [11H-PFUnDA, 11-H-Perfluoroundecanoic acid] | 0.00 | 294.69 µM |  | 0.0015 | 0.03 mg/kg/day |  |
| CCNS(=O)(=O)C(F)(F)C(F)(F)C(F)(F)C(F)(F)C(F)(F)C(F)(F)C(F)(F)C(F)(F)F [NEtFOSA, N-Ethylperfluorooctanesulfonamide] |  |  | > 15 µL/min/1e6 cells |  |  | Unadj Clint ([2]; both, human, hepatocytes, 1 μM): 24.92; Clint.1.Med [3]: 164 |
| O=S(=O)(O)C(F)(F)C(F)(F)C(F)(F)C(F)(F)F [PFBS, Perfluorobutanesulfonic acid] | 4.75 | 7.51 µM | 4.75 µL/min/1e6 cells | 0.0128 | 0.83 mg/kg/day | In Vitro Clint [2, 13]: 4.75 μL/min/million cells; estimated half life [7]: as low as one month |
| O=C(O)C(F)(F)C(F)(F)C(F)(F)C(F)(F)C(F)(F)C(F)(F)C(F)(F)C(F)(F)C(F)(F)F [PFDA, Perfluorodecanoic acid] | 0.00 | 173.91 µM |  | 0.0027 | 0.06 mg/kg/day |  |
| O=C(O)C(F)(F)C(F)(F)C(F)(F)C(F)(F)C(F)(F)C(F)(F)F [PFHpA, Perfluoroheptanoic acid] | 3.12 | 1657.68 µM |  | 0.0004 | 0.01 mg/kg/day |  |
| O=S(=O)(O)C(F)(F)C(F)(F)C(F)(F)C(F)(F)C(F)(F)C(F)(F)C(F)(F)F [PFHpS, Perfluoroheptanesulfonic acid] | 1.23 | 893.98 µM |  | 0.0006 | 0.02 mg/kg/day |  |
| O=C(O)C(F)(F)C(F)(F)C(F)(F)C(F)(F)C(F)(F)F [PFHxA, Perfluorohexanoic acid] | 1.62 | 113.04 µM |  | 0.0068 | 0.08 mg/kg/day |  |
| O=S(=O)(O)C(F)(F)C(F)(F)C(F)(F)C(F)(F)C(F)(F)C(F)(F)F [PFHxS, Perfluorohexanesulfonic acid] | 1.52 | 670.49 µM |  | 0.0009 | 0.033 mg/kg/day |  |
| O=C(O)C(F)(F)C(F)(F)C(F)(F)C(F)(F)C(F)(F)C(F)(F)C(F)(F)C(F)(F)F [PFNA, Perfluorononanoic acid] | 0.83 | 325.11 µM |  | 0.0016 | 0.05 mg/kg/day |  |
| O=C(O)C(F)(F)C(F)(F)C(F)(F)C(F)(F)C(F)(F)C(F)(F)C(F)(F)F [PFOA, Perfluorooctanoic acid] |  | 582.99 µM |  | 0.0010 | 0.01 mg/kg/day | Unadj Clint ([2]; unadjusted hepatic intrinsic clearance, pooled primary human hepatocyte suspensions, Table S4, listed as Perfluorooctanoic acid, in µL/min/10^6 cells): 1.49; time to reach steady state [8]: 3.5 years |
| O=S(=O)(O)C(F)(F)C(F)(F)C(F)(F)C(F)(F)C(F)(F)C(F)(F)C(F)(F)C(F)(F)F [PFOS, Perfluorooctanesulfonic acid] |  | 98.52 µM |  | 0.0049 | 0.08 mg/kg/day | Unadj Clint ([2]; unadjusted hepatic intrinsic clearance, pooled primary human hepatocyte suspensions, Table S4, listed as Perfluorooctanesulfonic acid, in µL/min/10^6 cells): 1.38; time to reach steady state [8]: 6.6 years; time to reach steady-state values [9]: 30 years |
| NS(=O)(=O)C(F)(F)C(F)(F)C(F)(F)C(F)(F)C(F)(F)C(F)(F)C(F)(F)C(F)(F)F [PFOSA, Perfluorooctanesulfonamide] |  |  | > 15 µL/min/1e6 cells |  |  | Unadj Clint ([2]; both, human, hepatocytes, 1 μM): 22.84; Clint.1.Med [3]: 0 |
| O=C(O)C(F)(F)C(F)(F)C(F)(F)OC(F)(C(F)(F)F)C(F)(F)F [PFPE-1, Perfluoro-4-isopropoxybutanoic acid] | 5.78 |  | 5.78 µL/min/1e6 cells |  |  |  |

Source: paper PMC11435625, “In Vitro Hepatic Clearance Evaluations of Per- and Polyfluoroalkyl Substances (PFAS) across Multiple Structural Categories” (Toxics, 2024)
